Ten compounds from PubChem BioAssay (NCI) can be followed below.

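Exposure lasted 48 hours, with cells grown in 96-well plates and compounds tested at five concentrations. GI50 marks 50% less growth. TGI is the concentration that stops growth completely.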 Some results are limits rather than exact numbers.

Test systems include NCI-H23 lung; SK-MEL-2 melanoma; SR leukemia; SK-MEL-28 melanoma; SNB-75 CNS; HOP-92 NSCLC; SN12C renal; UO-31 renal; ACHN renal; HCT-116 colon.
Common to all, as to test: NCI tumour cell line growth inhibition, 48 h

Consider `COc1ccc2c(c1)CC1c3c(ccc(OC)c3O)CC2N1C` (stereo not given), for which the TGI with NCI-H23 lung is above 100 µM; in the assay on SK-MEL-2 melanoma it was 37.1 µM; in the assay on SR leukemia it was 45.4 µM; in the assay on SK-MEL-28 melanoma, 43.8 µM; in the assay on SNB-75 CNS it was above 100 µM; in the assay on HOP-92 NSCLC, 70.9 µM. Besides, the TGI in the assay on SN12C renal was above 100 µM; with UO-31 renal it was above 100 µM; in the assay on ACHN renal, above 100 µM; in the assay with HCT-116 colon, 47.3 µM.
Regarding `CCOC(=O)c1oc2ccc([N+](=O)[O-])c3c2c1CCC3`, the TGI was above 100 µM in the assay on NCI-H23 lung; above 100 µM with SK-MEL-2 melanoma; above 100 µM in the assay with SR leukemia; above 100 µM with SK-MEL-28 melanoma; 33.5 µM in the assay on SNB-75 CNS; 71 µM in the assay with HOP-92 NSCLC. Also, the TGI in the assay on SN12C renal, in the assay with UO-31 renal, in the assay on ACHN renal and in the assay with HCT-116 colon was above 100 µM in each case.
Regarding `COc1cc(N2CCN(C(C)C)CC2)ccc1Nc1nc(Nc2cccc(F)c2C(=O)O)c2cc[nH]c2n1`, the GI50 in the assay with NCI-H23 lung is above 25 µM; in the assay on SK-MEL-2 melanoma, above 25 µM; in the assay with SR leukemia, above 25 µM; in the assay on SK-MEL-28 melanoma, above 25 µM; with SNB-75 CNS it was above 25 µM; with HOP-92 NSCLC it was 1.06 µM. Further, the GI50 in the assay on SN12C renal, with UO-31 renal, in the assay on ACHN renal and with HCT-116 colon was above 25 µM throughout. The TGI in the assay on NCI-H23 lung, with SK-MEL-2 melanoma, in the assay with SR leukemia, with SK-MEL-28 melanoma, in the assay on SNB-75 CNS and in the assay on HOP-92 NSCLC was above 25 µM throughout. Moreover, the TGI in the assay on SN12C renal, in the assay on UO-31 renal, with ACHN renal and in the assay with HCT-116 colon was above 25 µM throughout.
In the case of `CCN(CC)CCN(Cc1ccc(F)cc1)c1ccc(CO)c(Cl)c1`, the GI50 in the assay on NCI-H23 lung was 35.4 µM; in the assay with SK-MEL-2 melanoma, 21.2 µM; with SR leukemia, 23.5 µM; with SK-MEL-28 melanoma it was 17.2 µM; in the assay on SNB-75 CNS it was 12.2 µM; with HOP-92 NSCLC, 2.66 µM. For the same compound, the GI50 with SN12C renal was 27.7 µM; in the assay with UO-31 renal, 19.5 µM; in the assay with ACHN renal it was 38.2 µM; in the assay on HCT-116 colon it was 3.55 µM. The TGI was above 100 µM in the assay with NCI-H23 lung; 44.4 µM with SK-MEL-2 melanoma; 67.9 µM with SR leukemia; 32.9 µM with SK-MEL-28 melanoma; above 94.8 µM in the assay with SNB-75 CNS; 19.3 µM with HOP-92 NSCLC. Also, the TGI was above 100 µM in the assay with SN12C renal, 95.1 µM in the assay on UO-31 renal, above 100 µM in the assay with ACHN renal and above 50.1 µM in the assay on HCT-116 colon.
With `Cc1[nH]nc2c1N=C(c1ccccc1F)c1cc(C(N)=O)ccc1N2`, the GI50 in the assay on NCI-H23 lung was 6.85 µM; in the assay with SK-MEL-2 melanoma it was 2.45 µM; in the assay with SR leukemia, 0.191 µM; with SK-MEL-28 melanoma, 5.79 µM; in the assay with SNB-75 CNS, 0.0838 µM; with HOP-92 NSCLC, 7.12 µM. Also, the GI50 in the assay on SN12C renal was 4.2 µM; in the assay on UO-31 renal it was 4.31 µM; in the assay with ACHN renal, 3.3 µM; in the assay with HCT-116 colon it was 1.02 µM. Also, the TGI was above 25 µM in the assay with NCI-H23 lung; 7.14 µM in the assay on SK-MEL-2 melanoma; 8.2 µM in the assay on SR leukemia; above 24.1 µM in the assay on SK-MEL-28 melanoma; 1.69 µM with SNB-75 CNS; above 25 µM in the assay on HOP-92 NSCLC. Further, the TGI in the assay with SN12C renal was above 25 µM; in the assay with UO-31 renal, above 21.1 µM; in the assay with ACHN renal, above 22.9 µM; in the assay with HCT-116 colon, above 25 µM.
On to `O=S(=O)([O-])[O-].[Cl-].[NH2-].[NH2-].[NH2-].[NH2-].[Ru+3].c1ccncc1`, for which the TGI with NCI-H23 lung, with SK-MEL-2 melanoma, in the assay on SR leukemia, in the assay with SK-MEL-28 melanoma, in the assay with SNB-75 CNS and in the assay on HOP-92 NSCLC was above 100 µM throughout. Moreover, the TGI in the assay with SN12C renal, in the assay with UO-31 renal, with ACHN renal and in the assay on HCT-116 colon was above 100 µM throughout.
Consider `C[C@]1(Cn2ccnn2)C(C(=O)O)N2C(=O)CC2S1(=O)=O` (stereo not given in full), for which the GI50 in the assay on NCI-H23 lung, in the assay on SK-MEL-2 melanoma, with SR leukemia, with SK-MEL-28 melanoma, with SNB-75 CNS and in the assay with HOP-92 NSCLC was above 100 µM in each case. Besides, the GI50 with SN12C renal, in the assay with UO-31 renal, with ACHN renal and in the assay with HCT-116 colon was above 100 µM in each case. Besides, the TGI in the assay on NCI-H23 lung, in the assay on SK-MEL-2 melanoma, with SR leukemia, in the assay on SK-MEL-28 melanoma, in the assay with SNB-75 CNS and in the assay with HOP-92 NSCLC was above 100 µM in each case. Also, the TGI in the assay on SN12C renal, in the assay on UO-31 renal, in the assay on ACHN renal and with HCT-116 colon was above 100 µM in each case.
As for `Cc1ccn2c(CCc3nnc4cc(C)ccn34)nnc2c1`, the TGI with NCI-H23 lung, in the assay with SK-MEL-2 melanoma, in the assay on SR leukemia, with SK-MEL-28 melanoma, with SNB-75 CNS and in the assay with HOP-92 NSCLC was above 100 µM throughout. Further, the TGI in the assay on SN12C renal, in the assay on UO-31 renal, in the assay with ACHN renal and in the assay with HCT-116 colon was above 100 µM each time.
`C/C(=N\N=C(\[Se])N(C)C)c1ccccn1`: the TGI with NCI-H23 lung is 11 µM; in the assay with SK-MEL-2 melanoma, 12.9 µM; with SR leukemia, 23.7 µM; in the assay with SK-MEL-28 melanoma, 18.9 µM; in the assay with SNB-75 CNS it was 15.5 µM; in the assay on HOP-92 NSCLC it was 13.1 µM. Further, the TGI in the assay with SN12C renal worked out at 14.9 µM; with UO-31 renal, 13.9 µM; in the assay on ACHN renal it was 13.2 µM; with HCT-116 colon, 14.2 µM.
`O=S1(=O)CCCS(=O)(=O)C(c2ccccc2)=C1c1ccccc1`: the TGI with NCI-H23 lung is above 100 µM; in the assay on SK-MEL-2 melanoma, above 100 µM; in the assay with SR leukemia, above 100 µM; with SK-MEL-28 melanoma, above 100 µM; in the assay with SNB-75 CNS it was above 100 µM; with HOP-92 NSCLC, 85.3 µM. Besides, the TGI with SN12C renal, in the assay with UO-31 renal, in the assay with ACHN renal and in the assay on HCT-116 colon was above 100 µM in each case.
